One experiment addresses FoccCSP-Gln87Ala (Frankliniella occidentalis, UniProt G4Y3X1, Q87A). As to the kind of experiment: Fluorescence (1-NPN) binding and competitive binding assay, FoccCSP mutant. The procedure: (§1) The binding affinity of FintCSP1 and FoccCSP to the fluorescent probe N-phenyl-1-naphthylamine (1-NPN) was tested using a Spectramax M2 fluorescence spectrometer (Molecular Devices, USA) as reported previously. Volatile compounds and 1-NPN were first dissolved to a concentration of 1 mM in HPLC-grade methanol and dissolved to their indicated final concentration (2–20 μM) to titrate 2 μM protein solutions resuspended in 50 mM Tris-HCl (pH 7.4). The 1-NPN/FintCSP1 or 1-NPN/FoccCSP mixture was excited at 280 nm, and the emission spectra were recorded at 415 nm. The binding constants (Kd) of FintCSP1 or FoccCSP to 1-NPN were calculated by Scatchard analysis using Prism 5 software (GraphPad, La Jolla, CA, USA). Assuming a protein activity of 100% and that the volatile compound binds to the protein in a 1:1 ratio at saturation, the dissociation constants (Ki) of FintCSP1 or FoccCSP for each ligand were calculated according to the IC50 (the concentration when the ligand replaces 50% of the probe) value of the volatile compounds. The Ki values were calculated according to the following equation: Ki = [IC50]/(1 + [1-NPN]/K1-NPN), where [1-NPN] is the free concentration of 1-NPN, and K1-NPN is the Kd of the 1-NPN/FintCSP1 or 1-NPN/FoccCSP.
(§2) To verify the key amino acids of FintCSP1 and FoccCSP that bind to cis-3-hexenal, six amino acid residues of FintCSP1 were mutated (Lys26Ala, Phe27Ala, Thr28Ala, Glu67Ala, Ser84Ala, and the negative control residue Val132Ala) and nine amino acid residues of FoccCSP were mutated (Lys26Ala, Phe27Ala, Thr28Ala, Thr29Ala, Tyr31Ala, Asp64Ala, Glu67Ala, Gln87Ala, and the negative control residue Val132Ala) with the Fast Mutagenesis System Kit (Transgen Biotech, Beijing, China) using the pET-30a/FintCSP1 and pET-30a/FoccCSP plasmid DNA as template, respectively. Specific primers were designed using Primer Premier 5.0 according to the instructions of the Fast Mutagenesis System Kit (S1 Table). After validation by sequencing, each recombinant variant protein was produced and purified as described above, and their binding affinity to cis-3-hexenal was measured as described above.

The target of another experiment is FoccCSP-Lys26Ala (Frankliniella occidentalis, UniProt G4Y3X1, K26A). The experiment is described as above. Here is the method:
as §1, §2

The next experiment deals with FoccCSP-Tyr31Ala (Frankliniella occidentalis, UniProt G4Y3X1, Y31A). Described as above. Here is the method:
as §1, §2

For another experiment, the system named is F. occidentalis. As to the kind of experiment: Y-tube olfactometer preference test. Format: in vivo, Frankliniella occidentalis. To be noted: dsFoccCSP-injected; vs liquid paraffin control. Here is the method: F. intonsa and F. occidentalis preference tests of plant volatile cues were performed using a glass Y-tube olfactometer according to the method described by Wang et al. (2014) with minor modifications. A Y-shaped tube (1-cm inner diameter) consisted of a central tube (10 cm in length) and two arms (10 cm in length, offset by 60°) connected to two different glass odor bottles. One glass odor bottle was 50 cm in height, with a 10-cm inner diameter that contained pepper plants (14-day post-viral infection); the other glass odor bottle was 5 cm in height, with a 3-cm inner diameter for plant VOCs. The airflow in the olfactometer (200 mL/min) was filtered through activated carbon and calibrated using a flow meter at the end of each arm. To remove all visual cues, the Y-tube was positioned horizontally in a black airtight cubic box (90 cm × 60 cm × 40 cm). The tested odor sources (pepper plant VOCs) were enclosed in the odor bottles 5 min prior to each test to allow the odors to fill the arms. Thrips (2-day-old, starved for 1 h) were individually placed in the central tube and allowed to choose between the two arms. […] If the thrips had not made a choice after being placed in the straight arm for 5 min, the insect behaviour was scored as “no selection,” and it was not counted in the total data. […]

Sequence of FoccCSP-Gln87Ala (G4Y3X1 entry or part of it Q87A): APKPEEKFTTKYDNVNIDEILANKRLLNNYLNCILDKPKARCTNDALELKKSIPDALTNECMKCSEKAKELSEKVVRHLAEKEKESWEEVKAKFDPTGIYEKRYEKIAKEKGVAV
Sequence of FoccCSP-Tyr31Ala (G4Y3X1 entry or part of it Y31A): as the sequence (G4Y3X1 entry or part of it Q87A) above, with Y12A, A68Q counted along it
Sequence of FoccCSP-Lys26Ala (G4Y3X1 entry or part of it K26A): as the sequence (G4Y3X1 entry or part of it Q87A) above, with K7A, A68Q counted along it

With `CC/C=C\CC=O` [cis-3-hexenal], the values for the IC50 on FoccCSP-Gln87Ala, at FoccCSP-Lys26Ala and at FoccCSP-Tyr31Ala were 47.47 ± 0.44 µM, 36 ± 0.79 µM and 43.9 ± 0.66 µM, respectively. For the same molecule, the values for the Ki at FoccCSP-Gln87Ala, at FoccCSP-Lys26Ala and at FoccCSP-Tyr31Ala were 43.68 ± 0.41 µM, 32.6 ± 0.71 µM and 37.4 ± 0.56 µM, respectively. Also, the “binding affinity to cis-3-hexenal (in words)” value at FoccCSP-Gln87Ala (FoccCSP-Gln87Ala compared to the wild-type protein), at FoccCSP-Lys26Ala (FoccCSP-Lys26Ala compared to the wild-type protein) and at FoccCSP-Tyr31Ala (FoccCSP-Tyr31Ala compared to the wild-type protein) was “significantly decreased binding affinities” throughout. In addition, the “preference of dsFoccCSP-silenced F. occidentalis (in words)” value with F. occidentalis is “no clear preference”.

Values taken from paper PMC10194981, “Chemosensory protein regulates the behavioural response of Frankliniella intonsa and Frankliniella occidentalis to tomato zonate spot virus–Infected pepper (Capsicum annuum)” (PLOS Pathogens, 2023).
